In patent publication EP0775133B1, “NAPHTHALENE AMIDES HAVING LEUKOTRIENE-ANTAGONISTIC ACTION” (LABORATORIOS MENARINI S.A., priority 1994, dated 1996):
Where a name gives a salt, the structure may show the parent alone.

Tests used:
[1] = test system: mienteric plexus of guinea-pig isolated ileum; assay: Inhibition of LTD4-induced contractions in the mienteric plexus of guinea-pig isolated ileum; details: LTD4 3 nM, compound incubated 2.5 minutes
Protocol: Inhibition test of the contractions induced by LTD4 in the mienteric plexus of quinea-pig isolated ileum.
The antagonistic activity of the compounds of the present invention in the isolated organ was evaluated as its ability to inhibit the contraction caused by LTD4 in the mienteric plexus of the ileum of Dunkin Hartley male albino guinea-pig, weighing 300-350 g (Cristol J.P. and Sirois P. Res. Commun. Chem. Pathol., 59, 423 (1988)).
The mienteric plexus is extracted from a 2-3 cm segment of the terminal portion of the guinea-pig ileum, previously sacrificed by cervical dislocation. The plexus is put, at a tension of 0.5 g, in a 5 ml organ bath, containing a solution of Tyrode (137 mM NaCl, 2.7 mM KCl, 1.4 mM CaCl2, 0.4 mM NaH2PO4, 11.9 mM NaHCO3, 0.8 mM MgSO4, 5.5 mM glucose), saturated with carbogen gas (95% 02-5% CO2) at 37°C. The solution also contains indomethacin (3.3 µM) and atropine (0.4 µM) to remove the action of the intrinsic prostaglandins and the cholinergic responses.
After a 45 minute stabilization period a maximum isotonic response is obtained (100% contractile response) adding to the bath chamber the LTD4 agonist (3 nM). This process is repeated until the same contraction response is obtained twice. The […] measures are made in an isotonic transducer.
After stabilization is restored, the product under test is incubated at different concentrations (dissolved in 0.1% final concentration DMSO) for 2.5 minutes, and after that the contraction with LTD4 is induced again.
The antagonistic activity is expressed as IC50, the concentration of compound which reduces by 50% the maximum contraction.

LTD4 receptors = biological target: T1, LTD4 receptors (Cavia porcellus, UniProt Q2NNR5); assay: [3H]-LTD4 receptor binding inhibition test in guinea-pig lung membranes; details: 0.5 nM [3H]-LTD4, 30 minutes at 25°C, Cheng-Prusoff
T1 construct: Guinea pig lung membranes, containing the LTD4 receptors; from tissue; host or cells: guinea-pig lung membranes
T1 sequence (Q2NNR5 1-340): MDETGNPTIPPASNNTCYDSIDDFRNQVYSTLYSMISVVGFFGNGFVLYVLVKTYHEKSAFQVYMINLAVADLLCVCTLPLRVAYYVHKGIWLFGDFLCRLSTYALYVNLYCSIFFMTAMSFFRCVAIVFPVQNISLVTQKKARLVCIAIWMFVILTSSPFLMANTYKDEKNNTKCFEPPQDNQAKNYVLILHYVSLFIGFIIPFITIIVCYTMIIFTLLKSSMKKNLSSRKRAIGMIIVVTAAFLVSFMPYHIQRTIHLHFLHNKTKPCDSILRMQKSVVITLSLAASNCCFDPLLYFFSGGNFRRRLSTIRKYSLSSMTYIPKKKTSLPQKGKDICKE
Protocol: [^3H]-LTD4 receptor binding inhibition test in quinea-pig lung membranes
These purified membranes (150 µg/ml) are added to an incubation mixture containing 10 mM of PIPES buffer (piperazin-N,N'-bis(2-ethanesulfonic acid) (pH 7.4), 10 mM of CaCl2, 10 mM of 5 MgCl2, 2 mM of cysteine, 2 mM of glycine, 0.5 nM of [^3H]-LTD4 (4700-6400 GBq/mmol) and different concentrations of the product under test in a final volume of 310 µl. The reaction mixture is incubated for 30 minutes at 25°C.
The radioligand bound to the membranes is separated from the free one by dilution with 4 ml washing buffer (10 mM Tris-HCl (pH 7.4) and 100 mM NaCl) at 0°C and filtration with Whatman GF/B filters, by means of a Brandel Cell Harvester. The filters are washed 4 times with a total volume of 16 ml of washing buffer at 0°C. The radioactivity present in the filters is determined by liquid scintillation.
The specific binding is defined as the difference between the total binding of [^3H]-LTD4 and the nonspecific binding determined in the presence of 1 µM LTD4.

SMILES	IC50 [1] [nM]	Ki (LTD4 receptors) [nM]
CC(C(=O)NCc1ccc(-c2nnn[nH]2)cc1)c1ccc2cc(OCc3ccc4ccccc4n3)ccc2c1 (centres unmarked) [Example 1, N-[4-(1H-5-tetrazolyl)phenylmethyl]-2-[6-(2-quinolinylmethoxy)-2-naphthyl]propanamide]	13	
CC(C(=O)NCc1cccc(-c2nnn[nH]2)c1)c1ccc2cc(OCc3ccc4ccccc4n3)ccc2c1 (centres unmarked) [Example 2, N-[3-(1H-5-tetrazolyl)phenylmethyl]-2[6-(2-quinolinylmethoxy)-2-naphthyl]propanamide]	66	29.5 ± 3
CC(C(=O)NCc1ccccc1-c1nnn[nH]1)c1ccc2cc(OCc3ccc4ccccc4n3)ccc2c1 (centres unmarked) [Example 3, N-[2-(1H-5-tetrazolyl)phenylmethyl]-2-[6-(2-quinolinylmethoxy)-2-naphthyl]propanamide]	18	12 ± 3
CC(C(=O)Nc1ccc(Cc2nnn[nH]2)cc1)c1ccc2cc(OCc3ccc4ccccc4n3)ccc2c1 (centres unmarked) [Example 5, N-[4-(1H-5-tetrazolyl)methylphenyl]-2-[6-(2-quinolinylmethoxy)-2-naphthyl]propanamide]	> 100	34 ± 5
CC(C(=O)Nc1ccc(Cc2nn[nH]n2)cc1)c1ccc2cc(OCc3ccc4ccccc4n3)ccc2c1 (centres unmarked) [Example 6, N-[4-(1H-5-tetrazolyl)methylphenyl]-2-[6-(2-quinolinylmethoxy)-2-naphthyl]propanamide (sodium salt)]	> 100	32.7 ± 3
CC(C(=O)Nc1ccc(CCCC(=O)O)cc1)c1ccc2cc(OCc3ccc4ccccc4n3)ccc2c1 (centres unmarked) [Example 10, 4-[4-[2-[6-(2-quinolinylmethoxy)-2-naphthyl]propanamido]phenyl]butanoic acid]	> 100	38.5 ± 6.3
CC(C(=O)NCc1cccc(C(=O)O)c1)c1ccc2cc(OCc3ccc4ccccc4n3)ccc2c1 (centres unmarked) [Example 14, 3-[2-[6-(2-quinolinylmethoxy)-2-naphthyl]propanamidomethyl]benzoic acid]	75	68 ± 5
CC(C(=O)Nc1cccc(CC(=O)O)c1)c1ccc2cc(OCc3ccc4ccccc4n3)ccc2c1 (centres unmarked) [Example 18, 3-[2-[6-(2-Quinolinylmethoxy)-2-naphthyl]propanamido]phenylacetic acid]		134 ± 18
CC(C(=O)Nc1ccc(CCCC(=O)O)cc1)c1ccc2cc(OCc3ccc4ccc(Cl)cc4n3)ccc2c1 (centres unmarked) [Example 20, 4-[4-[2-[6-[(7-chloro-2-quinolinyl)-methoxy]-2-naphthyl]propanamido]phenyl]butanoic acid]		190 ± 21
O=C(Cc1ccc2cc(OCc3ccc4ccccc4n3)ccc2c1)NCc1ccc(-c2nnn[nH]2)cc1 [Example 21, N-[4-(1H-5-tetrazolyl)phenylmethyl]-6-(2-quinolinylmethoxy)-2-naphthaleneacetamide]	6	5.5 ± 0.5
O=C(O)CCCc1ccc(NC(=O)c2ccc3cc(OCc4ccc5ccccc5n4)ccc3c2)cc1 [Example 23, 4-[4-[[6-(2-quinolinylmethoxy)-2-naphthyl]carboxamido]phenyl]butanoic acid]	> 100	30 ± 1.2
O=C(NCc1cccc(-c2nnn[nH]2)c1)c1ccc2cc(OCc3ccc4ccccc4n3)ccc2c1 [Example 24, N-[3-(1H-5-tetrazolyl)phenylmethyl]-6-(2-quinolinylmethoxy)-2-naphthalenecarboxamide]		28 ± 3
O=C(O)CCCc1ccc(NC(=O)c2ccc3ccc(OCc4ccc5ccccc5n4)cc3c2)cc1 [Example 26, 4-[4-[[7-(2-quinolinylmethoxy)-2-naphthyl]carboxamido]phenyl]butanoic acid]	38	
O=C(NCc1ccc(-c2nnn[nH]2)cc1)c1ccc2ccc(OCc3ccc4ccccc4n3)cc2c1 [Example 27, N-[4-(1H-5-tetrazolyl)phenylmethyl]-7-(2-quinolinylmethoxy)-2-naphthalenecarboxamide]	28	7.8 ± 2
O=C(O)c1ccc(CCNC(=O)c2ccc3ccc(OCc4ccc5ccccc5n4)cc3c2)cc1 [Example 29, 4-[2-[[7-(2-quinolinylmethoxy)-2-naphthyl]carboxamido]ethyl]benzoic acid]	8	1 ± 0.1
O=C(NCCc1ccc(-c2nnn[nH]2)cc1)c1ccc2ccc(OCc3ccc4ccccc4n3)cc2c1 [Example 30, N-[4-(1H-5-tetrazolyl)phenylethyl]-7-(2-quinolinylmethoxy)-2-naphthalenecarboxamide]	24	
O=C(O)CCCc1ccc(C(=O)NCc2ccc3cc(OCc4ccc5ccccc5n4)ccc3c2)cc1 [Example 32, 4-[4-[[6-(2-quinolinylmethoxy)-2-naphthyl]methylaminocarbonyl]phenyl]butanoic acid]		44 ± 15
O=C(NCCCc1ccc(-c2nnn[nH]2)cc1)c1ccc2ccc(OCc3ccc4ccccc4n3)cc2c1 [Example 33, N-[4-(1H-5-tetrazolyl)phenylpropyl]-7-(2-quinolinylmethoxy)-2-naphthalenecarboxamide]	87	13.1 ± 2
